This is an account of results in US20230317203A1, “SCREENING METHOD” (University of Leeds, priority 2022, published 2023).

Test [1] concerns the target T1, BRISC (Homo sapiens, UniProt P46736+Q15018+Q9NXR7). In words: IQF K63-linked diUb DUB activity assay, BRISC. The test is classed as biochemical. The note with it: for inhibition of BRISC DUB activity: IQF assay, BRISC 1 nM. More on the design: made in house; host or cells: Spodoptera frugiperda (Sf9) insect cells. How it is done: (§1) BRISC complexes were tested for activity in DUB reaction buffer containing 50 mM HEPES-NaOH pH 7.0, 100 mM NaCl, 0.1 mg/mL BSA, 1 mM DTT, and 0.003% Brij-35. […] Inhibitors were assayed at concentrations up to 200 μM. 20 μL enzyme reactions were carried out in 384-well black flat-bottom low flange plates (Corning; 35373). DUB activity was measured using internally quenched fluorescent (IQF) K63-linked diUb (Lifesensors, catalogue number: DU6303) at 50 or 100 nM. Cleaved diUb was monitored by measuring fluorescence intensity (Ex. 540 nm, Em. 580 nm; dichroic mirror 560 nm). Fluorescence intensity was measured every minute for 30 minutes at 30° C. Fluorescence intensity units for the first 10 minutes were plotted against time to generate a linear reaction progress curve, where the initial velocity (v0) corresponds to the gradient of the curve. IC50 values were calculated using the GraphPad Prism (v8.0) built-in dose-response equation for inhibitor concentration vs. response (variable slope).
(§2) A high throughput biochemical screen was designed to identify inhibitors of BRISC, based on the ability of small molecules to inhibit BRISC cleavage of a K63-linked di-ubiquitin substrate. The di-ubiquitin substrate is designed with a fluorescent TAMRA dye on the proximal ubiquitin moiety and fluorescence quencher on the distal ubiquitin molecule (FIG. 1A). Upon isopeptidase bond cleavage, fluorescence is detected, enabling continuous fluorescent readout of deubiquitylase activity over time (FIG. 1A). The assay conditions were optimised and used to test an in-house compound library comprising of ˜300 published and custom-made kinase inhibitors. From this screen, two hits were identified, compounds AT7519 (well H20) and YM201636 (well P12) (FIG. 1B). The specificity of these compounds was assessed against the broad-spectrum DUB ubiquitin-specific protease-2 (USP2) and the serine protease trypsin which cleave K63-Ub substrate under the same conditions. […] UV-Vis spectroscopy analyses of the compound in well H20 used in the screen compared to the Synkinase and Sellechem AT7519 compounds identified an additional peak in the H20 spectra (FIG. 5C). […] The synthesis of the two isomers was confirmed using mass spectrometry fragmentation analyses (FIG. 5E) and the inhibitory effect of the isomers was tested against BRISC.

A further test addresses T2, AMSH-LP (Homo sapiens, UniProt Q96FJ0).
T2 sequence (Q96FJ0 1-436): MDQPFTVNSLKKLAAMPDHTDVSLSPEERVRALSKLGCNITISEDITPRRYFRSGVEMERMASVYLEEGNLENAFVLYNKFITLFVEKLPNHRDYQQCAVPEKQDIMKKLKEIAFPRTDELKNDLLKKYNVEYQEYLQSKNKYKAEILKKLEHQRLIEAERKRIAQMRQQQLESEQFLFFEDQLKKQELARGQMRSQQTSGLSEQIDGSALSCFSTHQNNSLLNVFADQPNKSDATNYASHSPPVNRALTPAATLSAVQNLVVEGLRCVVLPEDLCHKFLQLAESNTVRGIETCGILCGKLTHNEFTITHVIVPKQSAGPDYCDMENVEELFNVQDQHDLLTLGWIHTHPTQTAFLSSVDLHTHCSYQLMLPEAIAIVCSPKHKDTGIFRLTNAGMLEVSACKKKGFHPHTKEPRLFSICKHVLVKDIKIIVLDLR
In words: IQF assay with JAMM/MPN DUB AMSH-LP. The test is classed as biochemical. The settings on record: FIG. 1E. An excerpt: (§3) FIGS. 1A-1F show the development a high-throughput screen to identify first-in-class DUB inhibitors. FIG. 1A depicts a diagram of a TAMRA-linked IQF di-ubiquitin substrate (left) and BRISC DUB activity against a fluorescent K63-linked substrate (right).

The target in the next test is ARISC (Homo sapiens, UniProt P46736+Q6UWZ7+Q9NXR7). Put plainly: IQF assay with ARISC. The class given is biochemical. The settings on record: FIG. 1E.
From the text: as §3

Another test concerns the target ARISC-RAP80 (Homo sapiens, UniProt P46736+Q6UWZ7+Q9NXR7). In words: IQF assay with ARISC-RAP80. The settings on record: FIG. 1E. The class given is biochemical.
From the text: as §3

Test [2] has as its target T1, BRISC. In words: Mass photometry of BRISC oligomeric state. The test is classed as binding. The settings on record: purified BRISC mixed with inhibitor, FIG. 2B. How it is done:
(§4) Microscope coverslips were prepared as previously described^33. All mass photometry experiments were performed using a One^MP mass photometer (Refeyn Ltd, Oxford, UK). For preliminary BRISC-inhibitor measurements, 1 μM BRISC(FL) was mixed with either DMSO or inhibitor at 330 μM and incubated for 15 minutes on ice. Prior to MP measurement, the BRISC-inhibitor mix was diluted in gel filtration buffer (25 mM HEPES, 150 mM NaCl, 1 mM TCEP) for a final concentration of BRISC at 10 nM (0.05% DMSO). 12 μL of this dilution was used for the final MP measurement, following autofocus stabilisation. […] The BRISC-inhibitor mix was used directly for MP measurement using buffer-free autofocus stabilisation. Movies were recorded for 60 seconds using AcquireMP (Refeyn, UK), and were processed using DiscoverMP (Refeyn, UK). Mass photometry image processing has been previously described^33. Briefly, contrast-to-mass (C2M) calibration was performed using protein standards (66-669 kDa) diluted in gel filtration buffer. […] The mass distribution from each run is in a histogram, where count refers to each landing event and a Gaussian sum is fitted to the data. The relative amount of each species is calculated as the area of each Gaussian, where a refers to the standard deviation of the fitted Gaussian. […] Curves were fitted and EC50 values were calculated using the GraphPad Prism (v8.0) built-in dose-response equation for concentration of agonist vs. response (variable slope).

The subject of test [3] is BRISC. Put plainly: Mass photometry of BRISC oligomeric state. The class given is binding, human. The note with it: mass photometry. As to the method:
as §4

Another test deals with T3, BRISC(FL) (Homo sapiens, UniProt P46736+Q15018+Q9NXR7).
T3 construct: The four-subunit human BRISC (full-length (FL) and MERIT40ΔN, Abraxas2ΔC) complex was cloned; made in house; host or cells: Spodoptera frugiperda (Sf9) insect cells
Put plainly: Native mass spectrometry of BRISC with inhibitor. The test is classed as binding. The note with it: 10 μM BRISC(FL), 1 mM inhibitor. As to the method: Samples were buffer exchanged into 500 mM ammonium acetate using Zeba Spin 7K MWCO desalting columns (ThermoFisher). Gold and palladium coated nanospray tips were prepared in-house and mounted on the nano-electrospray ionisation source. Mass spectra were acquired on a Q Exactive Ultra-High Mass Range Hybrid Quadrupole-Orbitrap mass spectrometer (Thermo Fisher), optimised for mass resolution at high m/z ratios. Data were visualised and processed using Mass Lynx (v4.1) and UniDec (v2.7.1).

For the next test, the target named is USP2 (Homo sapiens, UniProt O75604). Put plainly: IQF di-ubiquitin assay, USP2 specificity. The test is classed as biochemical. The settings on record: USP2 100 nM, K63-Ub substrate.
From the text: (§5) FIGS. 5A-5E show validation of hit compounds.
as §2

The next test has as its system Trypsin. In words: IQF di-ubiquitin assay, trypsin specificity. The class given is biochemical. The note with it: Trypsin 125 nM, K63-Ub substrate.
From the text: as §5, §2

Another test addresses BRISC BRCC36 Trp130Ala (Homo sapiens, UniProt P46736+Q15018+Q9NXR7, W130A). Put plainly: IQF DUB assay, BRISC mutant BRCC36 Trp130Ala. The test is classed as biochemical. The note with it: FIG. 4C. As to the method: (§6) The four-subunit human BRISC (full-length (FL) and MERIT40ΔN, Abraxas2ΔC) complex was cloned using the MultiBac system and co-expressed in Spodoptera frugiperda (Sf9) insect cells^32. BRISC mutants were cloned into pFastBac vectors in the Bac-to-Bac system (ThermoFisher), baculoviruses generated in Sf9 cells and used for co-infection of Trichoplusia ni (Tni) cells. All BRISC complexes were purified as previously described^12,13.
as §1, with “20 μL enzyme reactions were carried out in 384-well black flat-bottom low flange plates (Corning; 35373).” left out, “slope). […]” for “slope).”

The next test concerns the target BRISC BRCC36 Leu169Ala (Homo sapiens, UniProt P46736+Q15018+Q9NXR7, L169A). In words: IQF DUB assay, BRISC mutant BRCC36 Leu169Ala. The class given is biochemical. The settings on record: FIG. 4C. As to the method:
as §6
as §1, with “20 μL enzyme reactions were carried out in 384-well black flat-bottom low flange plates (Corning; 35373).” left out, “slope). […]” for “slope).”

Another test addresses BRISC Abraxas2 Thr140Ala (Homo sapiens, UniProt P46736+Q15018+Q9NXR7, T140A). In words: IQF DUB assay, BRISC mutant Abraxas2 Thr140Ala. The test is classed as biochemical. The note with it: FIG. 4C. How it is done: as §6
as §1, with “20 μL enzyme reactions were carried out in 384-well black flat-bottom low flange plates (Corning; 35373).” left out, “slope). […]” for “slope).”

The target of test [4] is T1, BRISC. Also noted: made in house; host or cells: Spodoptera frugiperda (Sf9) insect cells. The note with it: BRISC WT, reference 13; cited from earlier work.

Where two headings read alike, the source gives them in different places.

USP2, sequence (O75604 whole entry, species assumed): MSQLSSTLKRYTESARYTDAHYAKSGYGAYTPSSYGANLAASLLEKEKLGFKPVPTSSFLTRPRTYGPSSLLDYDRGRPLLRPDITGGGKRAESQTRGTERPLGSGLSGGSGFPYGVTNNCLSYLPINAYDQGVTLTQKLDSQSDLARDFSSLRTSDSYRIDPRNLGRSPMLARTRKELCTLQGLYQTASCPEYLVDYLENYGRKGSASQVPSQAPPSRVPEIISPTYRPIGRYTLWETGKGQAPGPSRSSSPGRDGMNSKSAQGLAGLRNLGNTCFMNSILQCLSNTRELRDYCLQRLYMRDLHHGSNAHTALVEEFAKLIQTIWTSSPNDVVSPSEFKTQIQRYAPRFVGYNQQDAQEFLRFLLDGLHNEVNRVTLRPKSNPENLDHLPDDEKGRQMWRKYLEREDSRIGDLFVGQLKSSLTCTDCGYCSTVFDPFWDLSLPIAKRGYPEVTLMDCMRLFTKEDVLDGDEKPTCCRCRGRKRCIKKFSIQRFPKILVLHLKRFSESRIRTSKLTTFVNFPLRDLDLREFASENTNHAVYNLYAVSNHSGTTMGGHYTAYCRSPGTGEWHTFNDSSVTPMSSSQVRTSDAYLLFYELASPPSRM

As to `O=C(NC1CCN(C(=O)c2c(Cl)cccc2Cl)CC1)c1n[nH]cc1NC(=O)c1c(Cl)cccc1Cl` [AP-5-144], the “inhibition of BRISC DUB activity” value at BRISC [1] was “no inhibition”.

For the molecule `O=C(NC1CCNCC1)c1[nH]ncc1NC(=O)c1c(Cl)cccc1Cl` [AT7519, reference compound], the “inhibition of BRISC DUB activity” value on BRISC [1] was “neither were found to inhibit”.

Take `O=C(NC1CCNCC1)c1nn(C(=O)c2c(Cl)cccc2Cl)cc1NC(=O)c1c(Cl)cccc1Cl` [JMS-175-2]: the “inhibition of AMSH-LP” value against AMSH-LP was “no inhibition”. Further, the “specificity for BRISC over ARISC” value at ARISC is “specifically inhibits BRISC over”. Further, the “specificity for BRISC over ARISC-RAP80” value at ARISC-RAP80 is recorded as “specifically inhibits BRISC over”. At BRISC [2], the “mass photometry counts, 1:1:1:1 complex” value stood at 8%; the “mass photometry counts, dimer” value is 69%; the “mass photometry counts, monomer” value came to 14%. For the same molecule, the “dimer formation at increasing inhibitor concentration” value in the test on BRISC [3] is given as “dose-dependent increase in dimer formation”. Further, at BRISC(FL), the “BRISC species by native mass spectrometry” value is recorded as “BRISC dimers with a MW consistent with a 4:4:4:4 stoichiometry were observed”. In addition, on BRISC [1] (IQF K63-linked diUb substrate, FIG. 1D, read-out: IC50 inhibiting BRISC), the IC50 was determined as 1500 nM. Moreover, at BRISC [1], the “inhibition of BRISC DUB activity” value is “specific inhibition”.

`Nc1ccc(C(=O)Nc2cccc(-c3nc(N4CCOCC4)c4oc5ncccc5c4n3)c2)cn1` [YM201636]: the “inhibition of USP2” value against USP2 is on record as “inhibited”. In the test with Trypsin, the inhibition of trypsin result is reported as “inhibited”. The “inhibition of BRISC DUB activity” value at BRISC [1] was “inhibited”.

B1: serine hydroxymethyltransferase (protein)
chain: QLVRMAIRAQHSNAAQTQTGEANRGWTGQESLSDSDPEMWELLQREKDRQCRGLELIASENFCSRAALEALGSCLNNKYSEGYPGKRYYGGAEVVDEIELLCQRRALEAFDLDPAQWGVNVQPYSGSPANLAVYTALLQPHDRIMGLDLPDGGHLTHGYMSDVKRISATSIFFESMPYKLNPKTGLIDYNQLALTARLFRPRLIIAGTSAYARLIDYARMREVCDEVKAHLLADMAHISGLVAAKVIPSPFKHADIVTTTTHKTLRGARSGLIFYRKGVKAVDPKTGREIPYTFEDRINFAVFPSLQGGPHNHAIAAVAVALKQACTPMFREYSLQVLKNARAMADALLERGYSLVSGGTDNHLVLVDLRPKGLDGARAERVLELVSITANKNTCPGDRSAITPGGLRLGAPALTSRQFREDDFRRVVDFIDEGVNIGLEVKSKTAKLQDFKSFLLKDSETSQRLANLRQRVEQFARAFPMPGFDEH
On to B1, for which the “inhibition in the presence of SHMT2” value in the test with BRISC BRCC36 Trp130Ala, in the test with BRISC BRCC36 Leu169Ala and with BRISC Abraxas2 Thr140Ala was “reduced inhibition” each time. Moreover, in the test with BRISC [4], the “inhibition of BRISC DUB activity” value was “potent inhibitor”.
